Data reported in patent publication US6384173B1, “Silicone functionalized triclosan” (Siltech LLC, priority 2001, dated 2002).
Where two headings read alike, the source gives them in different places.

Columns and labels:
[1] = Thermal Gravimetric Analysis (weight percent lost); type: physicochemical; settings: Perkin-Elmer TGA 7, temperature scanned from 40 to 250 degrees at 20 degree C./minute, at completion of scan
Description: Thermal Gravimetric Analysis
Measurements were obtained of the weight percent lost for the samples below using a Perkin-Elmer TGA 7 where the temperature was scanned from 40° to 250° at 20° C./minute. At the completion of the temperature scan for each, the following results were obtained: […]

[2] = TGA, 40 to 250 degrees at 20 degree C./minute; value marked (U.S. Pat. No. 6,197,072); cited from earlier work

Q: For `Oc1cc(Cl)ccc1Oc1ccc(Cl)cc1Cl` [Triclosan, triclosan], which “% Weight Loss” value [1] is on record?
A: 62%

Q: For Triclosan Acetate, which “% Weight Loss” value [2] is on record?
A: 12 (U.S. Pat. No. 6,197,072) %
